For this test, the system named is E. coli wild-type GFP strain growth, fluorescence, 24 h. Kind of test: growth inhibition of wild-type GFP E. coli, dose response, H69 mutant RFP, cherry-pick (AID 977621).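 Also: wild-type GFP and H69 mutant RFP strains grown together 50/50 in each well.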
The mark [1] stands for this setting: E. coli mixed culture, 24 h, measured here: total growth OD600, test 2.

Records with an inconclusive call do not appear. Active and inactive are the calls of the source.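 The calls were made as follows: active = Wild-type ribosome reporter drop at least double the humanized mutant ribosome reporter drop, growth loss under a set limit; inconclusive = no clear call, values can overlap the other calls; inactive = the rest.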

The term AC50 denotes the concentration giving half of the maximal activity seen. For the compound `COc1cccc(NC(=O)C2CCC(CNS(=O)(=O)c3cccs3)CC2)c1` (configuration not stated), the AC50 was > 100 µM (inactive).

As to `CCN(CC(=O)Nc1ccccc1OC)CC(=O)Nc1c(Cl)ccc(C)c1Cl`, the AC50 is > 100 µM (inactive).

On to `COc1ccc(-c2cn(-c3ccc(Cl)cc3)c3[n+]2CCCCC3)cc1`, for which the AC50 was > 100 µM (inactive).

`Cc1cc(C(C)(C)C)oc1C(=O)N(CC(=O)NC1CCCC1)c1c(C)cccc1C`: the AC50 is > 100 µM (inactive). Under setting [1], this compound showed an AC50 of over 100 µM.

For the compound `CC(OC(=O)COc1ccccc1)C(=O)NC1CCCC1` (configuration not stated), the AC50 was > 100 µM (inactive). This compound also displayed an AC50 under setting [1] of over 100 µM.

Under setting [1], `CCOC(=O)c1c(NC(=O)CN2CCC(C)CC2)sc(C)c1C` gave an AC50 of 48.5 µM.

Take `CSc1ccccc1C(=O)NCCc1ccc(S(=O)(=O)N2CCCCC2)cc1`: the AC50 is > 100 µM (inactive).

For the compound `Cc1ccc(OCc2nc(C#N)c(N3CCCCC3)o2)cc1`, the AC50 was > 100 µM (inactive). For the same compound, the concentration at half-maximal activity (AC50) under setting [1] is 42.7 µM.

With `CN(C)S(=O)(=O)N1CCN(c2ccccc2Cl)CC1`, under setting [1], the concentration at half-maximal activity (AC50) was over 100 µM.

For `Cc1ccccc1-c1cc(C(=O)NCc2cccs2)n(CC2CC(c3cccnc3)=NO2)n1` (configuration not stated), the AC50 was > 100 µM (inactive). Also, the AC50 under setting [1] was over 100 µM.

`COc1ccc(NS(=O)(=O)c2cccc3ccccc23)cc1`: the AC50 under setting [1] was 33.7 µM.

As for `CCOC(=O)c1c(CS(=O)(=O)c2ccccc2)n(C)c2cc(Br)c(O)cc12`, the AC50 is > 100 µM (inactive). Besides, the AC50 under setting [1] is over 100 µM.

For the compound `CC(=O)c1cccc(NC(=O)COC(=O)C2CCCN2C(=O)c2cccs2)c1` (configuration not stated), the AC50 is > 100 µM (inactive).

Consider `O=C(Cn1cnc2ccccc21)c1ccc(Br)cc1`, for which the AC50 is > 100 µM (inactive).

Turning to `O=C(CSc1ccccc1)NCCCc1ccccc1`, the half-maximal activity concentration (AC50) under setting [1] was over 100 µM.

As for `COc1ccc(Cl)cc1NC(=O)C1Cc2ccccc2CN1S(C)(=O)=O` (configuration not stated), the AC50 is > 100 µM (inactive).

`Cc1cc(C)c2sc(N(CCN(C)C)C(=O)c3c(F)cccc3F)nc2c1`: the AC50 was > 100 µM (inactive). Also, the half-maximal activity concentration (AC50) under setting [1] is over 100 µM.

As to `O=C(COC(=O)CCC(=O)c1ccc(F)cc1)Nc1cccc(S(=O)(=O)N2CCCC2)c1`, under setting [1], the AC50 was over 100 µM.

On to `O=C1c2cccc3cccc(c23)C(=O)N1c1ccccc1Cl`, for which the AC50 was > 100 µM (inactive).

In the case of `O=C(Cn1c2[n+](c3ccc(C(F)(F)F)cc31)CCCCC2)c1ccc2c(c1)OCCO2`, the AC50 was > 100 µM (inactive).

`O=C(CN(CCO)c1ccccc1)Nc1cccc(S(=O)(=O)N2CCCC2)c1`: the AC50 was > 100 µM (inactive).

Regarding `COc1ccc(Cc2nnc(Nc3ccc(C)cc3)o2)cc1OC`, the AC50 was > 100 µM (inactive).

For the compound `COc1ccccc1CCNC(=O)c1cccc(NC(=O)CC2SC(N3CCCCC3)=NC2=O)c1` (configuration not stated), the AC50 was > 100 µM (inactive).

As for `O=C(Nc1ccc2nc3n(c(=O)c2c1)CCCCC3)c1c(F)ccc([N+](=O)[O-])c1F`, the AC50 is > 100 µM (inactive).

In the case of `O=C(COc1cccc2c1CCN(Cc1ccccc1F)C2=O)N1CCCCC1`, the AC50 was > 100 µM (inactive).

`Cc1ccc(-c2cc[n+](Cc3ccccc3)cc2)cc1` registered an AC50 under setting [1] of over 100 µM.

With `Cc1cc(C(=O)NCCC2=CCCCC2)ccc1[N+](=O)[O-]`, the AC50 is > 100 µM (inactive).

Under setting [1], `Cc1cc(C(=O)COC(=O)CNC(=O)c2ccccc2)c(C)n1CC1CCCO1` (configuration not stated) came in with an AC50 of over 100 µM.

Consider `C[C@@H]1NS(=O)(=O)c2c(F)cccc2O[C@@H]1c1ccccc1`, for which the AC50 is > 100 µM (inactive).

Regarding `CCOc1ccc(S(=O)(=O)Nc2ccc(S(=O)(=O)N3CCCC3)cc2)cc1`, the AC50 was > 100 µM (inactive).

Turning to `CN(c1ccccc1)S(=O)(=O)c1cccc(C(=O)OCC(=O)NCc2ccco2)c1`, the AC50 is > 100 µM (inactive).

`O=C(CN1CCN(S(=O)(=O)c2ccc(Cl)cc2)CC1)Nc1ccc2c(c1)CCC2` came in with an AC50 under setting [1] of over 100 µM.

On to `CCC(=O)N(CCC(c1ccco1)C(C)C)Cc1ccccc1` (configuration not stated), for which the AC50 is > 100 µM (inactive).

On to `CN(C)C(CNS(=O)(=O)c1cc([N+](=O)[O-])ccc1Cl)c1ccco1` (configuration not stated), for which the AC50 is > 100 µM (inactive).

For `CCN(CC)S(=O)(=O)c1ccc(O)c(C(=O)OCC(=O)NC23CC4CC(CC(C4)C2)C3)c1`, the AC50 was > 100 µM (inactive). Further, the half-maximal activity concentration (AC50) under setting [1] was over 100 µM.

`CCOC(=O)c1nc(C)sc1-c1ccnn1S(=O)(=O)c1cccc(Cl)c1`: the AC50 is > 100 µM (inactive). The same compound had a concentration at half-maximal activity (AC50) under setting [1] of 45.7 µM.

As to `O=C(CCC(=O)N1CCN(c2ccc(F)cc2)CC1)N1CCN(c2ccc(F)cc2)CC1`, the AC50 is > 100 µM (inactive). This compound had an AC50 under setting [1] of over 100 µM.

In the case of `CCN(CC)CCN(C(=O)c1ccc2c(c1)OCCO2)c1nc2cc(C)cc(C)c2s1`, the AC50 was > 100 µM (inactive).

Under setting [1], `CCOCCCNC(=O)C(NC(=O)c1ccccc1O)c1ccc(C)cc1` (configuration not stated) showed a concentration at half-maximal activity (AC50) of over 100 µM.

As for `Cc1ccc(NC(=O)c2ccc(Br)o2)cc1S(=O)(=O)N(C)C`, the AC50 is > 100 µM (inactive). Also, the concentration at half-maximal activity (AC50) under setting [1] was over 100 µM.

As to `O=C(c1ccccc1)c1ccc2nc(-c3ccc(NC(=O)c4ccccc4Br)cc3)[nH]c2c1`, the AC50 is > 100 µM (inactive). The compound further gave a half-maximal activity concentration (AC50) under setting [1] of over 100 µM.

On to `Cc1ccc(C(=O)Nc2ccc3ncccc3c2)cc1`, for which the AC50 was > 100 µM (inactive).

In turn, `CCc1ccc2nc(SCC(=O)Nc3ccccc3N3CCOCC3)c(C#N)cc2c1` yielded a half-maximal activity concentration (AC50) under setting [1] of over 100 µM.

Take `O=C(CCc1ccccc1)Nc1sc2c(c1C(=O)O)CCCC2`: the AC50 is > 100 µM (inactive).

Regarding `Cc1cc(-c2ccc(C)c(S(=O)(=O)NC(C)Cc3ccco3)c2)on1` (configuration not stated), the AC50 is > 100 µM (inactive). The compound also yielded an AC50 under setting [1] of 31 µM.

Regarding `O=C(COC(=O)C12CC3CC(CC(O)(C3)C1)C2)NCCc1ccc(Cl)cc1`, the AC50 is > 100 µM (inactive).

With `S=c1[nH]nc(-c2ccc(Br)cc2)n1-c1ccc2c(c1)OCCO2`, the AC50 was > 100 µM (inactive).

Consider `COCC(C)NC(=O)c1nn(Cc2ccccc2)c(=O)c2ccccc12` (configuration not stated), for which the AC50 under setting [1] stood at 28.2 µM.

On to `O=C(NCCc1ccc(Cl)cc1)c1ccc2nc[nH]c2c1`, for which the AC50 was > 100 µM (inactive).

For the compound `O=C(c1cc(C(=O)N2CCOCC2)c2nc3ccccc3n2c1)c1cc(Cl)cc(Cl)c1O`, the AC50 was > 100 µM (inactive). Moreover, the concentration at half-maximal activity (AC50) under setting [1] was over 100 µM.

For the compound `NC(=O)c1nsc(C(=O)N(c2ccccc2F)C(C(=O)NCc2ccc(F)cc2)c2ccc(O)cc2)c1N` (configuration not stated), the AC50 is > 100 µM (inactive). Further, under setting [1], the AC50 came to 47 µM.

`Cc1ccc(-c2nc(CN3CCCCC3c3cccc(F)c3)c(C)o2)o1` (configuration not stated) returned a half-maximal activity concentration (AC50) under setting [1] of over 100 µM.

In the case of `CN1C(=O)c2ccccc2OC1(C)Cc1ccccc1` (configuration not stated), the AC50 is > 100 µM (inactive). Further, the concentration at half-maximal activity (AC50) under setting [1] came to 41.6 µM.

For the compound `C[n+]1ccccc1/C=C/c1cc(Br)ccc1O`, the AC50 was > 100 µM (inactive).

Turning to `O=C(Cc1ccc(NC(=O)C2CCCN(C(=O)CCc3ccccc3)C2)cc1)Nc1cccc(C(=O)N2CCCC2)c1` (configuration not stated), the AC50 is > 100 µM (inactive). This compound also returned an AC50 under setting [1] of over 100 µM.

With `O=C(CCCOc1ccccc1)NCCc1nc2ccccc2[nH]1`, the AC50 was > 100 µM (inactive).

Turning to `O=C1N[C@@H](Cc2ccccc2)COC(=O)[C@H](Cc2ccc(F)cc2)C/C=C\C[C@H]1CC(=O)N(CCO)Cc1ccccc1`, the AC50 is > 100 µM (inactive).

On to `O=C(Nc1ccccc1)N1CCCCN2[C@@H](CO)[C@H](c3ccc(Br)cc3)[C@@H]2C1`, for which the AC50 is > 100 µM (inactive).

As to `COc1ccc(OC)c(NC(=O)COC(=O)C2CCN(C(=O)c3ccc(Cl)cc3)CC2)c1`, the AC50 under setting [1] was over 100 µM.

For the compound `O=C(NCCc1ccccc1)c1ccc2c(c1)S(=O)(=O)c1ccccc1C2=O`, the AC50 is > 100 µM (inactive). Under setting [1], the AC50 is 41.5 µM.

As to `O=C(c1ccc2c(c1)CCN2S(=O)(=O)c1ccccc1)N1CCN(c2ccccc2)CC1`, the AC50 was > 100 µM (inactive). This compound came in with an AC50 under setting [1] of over 100 µM.

As to `CCOC(=O)c1cc(C)nc(N2CCCCC2)c1C#N`, the AC50 under setting [1] was over 100 µM.

In turn, `Cc1cc(Cl)ccc1OCCCC(=O)OCC(N)=O` registered an AC50 under setting [1] of over 100 µM.

As for `COc1ccc(C(=O)Cn2nnc(-c3ccccc3F)n2)cc1`, the AC50 is > 100 µM (inactive). Moreover, the AC50 under setting [1] worked out at 41.2 µM.

On to `O=C(Nc1cccc(Cl)c1)N1C[C@H]2[C@@H](c3ccccc31)[C@@H](CO)N2C(=O)c1ccncc1`, for which the AC50 is > 100 µM (inactive).

Turning to `Cc1cc(C)c(S(=O)(=O)NCCOc2ccccc2)c(C)c1-n1cnnn1`, the AC50 was > 100 µM (inactive).

In the case of `COc1cc2[nH]c(=S)nc(NCCc3ccc(C)cc3)c2cc1OC`, the AC50 is > 100 µM (inactive).

Consider `COCCNc1cc(-c2ccccc2)nc2cc(-c3cccc(F)c3)nn12`, for which the AC50 was > 100 µM (inactive).

`Cc1onc(-c2c(F)cccc2Cl)c1C(=O)c1ccccc1O` showed an AC50 under setting [1] of 42.4 µM.

As to `CCn1nc(Cc2cccc3ccccc23)c(C#N)c1N`, the AC50 is > 100 µM (inactive).

Take `O=C(NCCCCc1ccccc1)c1cccc(NC(=O)C2CCCCC2)c1`: the AC50 is > 100 µM (inactive). Also, the AC50 under setting [1] worked out at 46.8 µM.

`Cc1ccc(SCC(=O)Nc2ccc(S(=O)(=O)Nc3nccs3)cc2)cc1`: the AC50 was > 100 µM (inactive).

Consider `COc1ccc(OC)c(S(=O)(=O)Nc2cccc3ccccc23)c1`, for which the AC50 is > 100 µM (inactive).

As for `CCc1ccc(NC(=O)COC(=O)CCCC2=NS(=O)(=O)c3ccccc3N2)cc1`, the AC50 was > 100 µM (inactive).

As to `NC(=O)c1ccsc1NC(=O)COC(=O)CSc1ccc(Cl)cc1`, the AC50 was > 100 µM (inactive). In addition, under setting [1], the AC50 is over 100 µM.

On to `COc1ccc(CC(=O)Nc2nc(-c3cc(OC)ccc3OC)cs2)cc1`, for which the AC50 was > 100 µM (inactive). Moreover, the AC50 under setting [1] was 20.9 µM.

As to `COc1ccc(C)c2sc(N(CCN(C)C)C(=O)c3ccc(S(=O)(=O)N(C)c4ccccc4)cc3)nc12`, the AC50 was > 100 µM (inactive).

`CC(C)(C)c1ccc(CCC2OCC(CN3CCOCC3)O2)cc1` (configuration not stated): the AC50 was > 100 µM (inactive).

Consider `Cc1ccccc1OCC(O)Cn1c(NCc2ccco2)nc2c1c(=O)n(C)c(=O)n2C` (configuration not stated), for which the AC50 is > 100 µM (inactive). The same compound gave an AC50 under setting [1] of over 100 µM.
